On to `C[C@@H](O)[C@@H]1NC(=O)[C@@H]2CSSC[C@@H](C(=O)N[C@@H](Cc3ccc(O)cc3)C(N)=O)NC(=O)[C@H](CCC(N)=O)NC(=O)[C@H](Cc3ccc(O)c(I)c3)NC(=O)[C@H](CCCNC(N)=O)NC(=O)[C@H](CSSC[C@H](NC(=O)CN)C(=O)N2)NC(=O)[C@H](CCCNC(=N)N)NC(=O)[C@@H]2CCCN2C(=O)[C@H](CC(=O)O)NC1=O` [CSP-4-NH2, GCCTDPRCX11X12QCY-amide], for which the “stability in human plasma (Citrate)” value was “increased stability compared to CSP-4”.

(Values after patent US11618772B2 (Kineta Chronic Pain, LLC, priority 2014, dated 2023).)
